The values below come from ChEMBL document CHEMBL1145498, “A systematic interaction map of validated kinase inhibitors with Ser/Thr kinases” (Proc Natl Acad Sci U S A, 2007).

Test [1] deals with T1, 3-phosphoinositide-dependent protein kinase 1 (Homo sapiens) (UniProt O15530).
T1 sequence (whole entry): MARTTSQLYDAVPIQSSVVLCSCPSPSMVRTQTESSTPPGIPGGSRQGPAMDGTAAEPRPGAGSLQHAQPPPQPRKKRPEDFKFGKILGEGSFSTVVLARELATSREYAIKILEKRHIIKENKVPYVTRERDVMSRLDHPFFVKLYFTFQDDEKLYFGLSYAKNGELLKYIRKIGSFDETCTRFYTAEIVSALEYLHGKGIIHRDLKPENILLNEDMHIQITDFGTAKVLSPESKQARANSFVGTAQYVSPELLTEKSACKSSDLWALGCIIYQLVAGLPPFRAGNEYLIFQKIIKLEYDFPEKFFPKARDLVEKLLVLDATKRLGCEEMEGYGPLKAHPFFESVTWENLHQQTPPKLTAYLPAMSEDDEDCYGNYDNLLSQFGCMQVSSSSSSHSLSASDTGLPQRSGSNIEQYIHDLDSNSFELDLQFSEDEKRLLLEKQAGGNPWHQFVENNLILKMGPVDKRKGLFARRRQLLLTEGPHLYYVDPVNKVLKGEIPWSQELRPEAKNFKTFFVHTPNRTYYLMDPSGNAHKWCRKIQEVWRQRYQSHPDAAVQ

Test [2] addresses Serine/threonine-protein kinase 25 (Homo sapiens) (UniProt O00506).
Test [3] addresses Dual specificity mitogen-activated protein kinase kinase 2 (Homo sapiens, UniProt P36507).
Test [4] addresses Serine/threonine-protein kinase 38 (Homo sapiens) (UniProt Q15208).
Test [5] deals with Serine/threonine-protein kinase Nek6 (Homo sapiens) (UniProt Q9HC98).
Sequence of Serine/threonine-protein kinase Nek6 (Homo sapiens) (Q9HC98 whole entry): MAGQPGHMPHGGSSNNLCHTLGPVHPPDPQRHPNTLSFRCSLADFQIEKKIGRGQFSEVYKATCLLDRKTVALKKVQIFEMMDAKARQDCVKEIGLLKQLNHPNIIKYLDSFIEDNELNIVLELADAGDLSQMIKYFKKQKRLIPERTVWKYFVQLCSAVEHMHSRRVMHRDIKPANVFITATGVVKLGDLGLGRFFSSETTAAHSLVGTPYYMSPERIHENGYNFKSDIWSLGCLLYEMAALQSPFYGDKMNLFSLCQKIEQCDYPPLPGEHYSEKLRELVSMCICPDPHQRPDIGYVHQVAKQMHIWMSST
Test [6] addresses Serine/threonine-protein kinase VRK2 (Homo sapiens) (UniProt Q86Y07).
Test [7] deals with Calcium/calmodulin-dependent protein kinase type 1G (Homo sapiens) (UniProt Q96NX5).
Test [8] deals with T2, Serine/threonine-protein kinase 4 (Homo sapiens) (UniProt Q13043).
T2 sequence (whole entry): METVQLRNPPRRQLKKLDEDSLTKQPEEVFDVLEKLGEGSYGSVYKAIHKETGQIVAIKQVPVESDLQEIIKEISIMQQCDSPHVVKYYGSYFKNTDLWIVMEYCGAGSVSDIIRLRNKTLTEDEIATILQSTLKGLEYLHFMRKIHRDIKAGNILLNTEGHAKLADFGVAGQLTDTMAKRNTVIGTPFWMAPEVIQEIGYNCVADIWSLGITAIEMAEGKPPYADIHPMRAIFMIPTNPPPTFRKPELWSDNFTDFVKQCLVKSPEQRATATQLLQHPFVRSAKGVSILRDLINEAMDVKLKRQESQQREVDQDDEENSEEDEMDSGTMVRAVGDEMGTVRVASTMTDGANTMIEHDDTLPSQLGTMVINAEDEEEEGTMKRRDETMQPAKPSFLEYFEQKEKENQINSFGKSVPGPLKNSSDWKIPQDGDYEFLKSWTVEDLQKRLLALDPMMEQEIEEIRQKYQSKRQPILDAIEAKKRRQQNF

The target in test [9] is Death-associated protein kinase 3 (Homo sapiens) (UniProt O43293).
Sequence of Death-associated protein kinase 3 (Homo sapiens) (O43293 whole entry, looked up): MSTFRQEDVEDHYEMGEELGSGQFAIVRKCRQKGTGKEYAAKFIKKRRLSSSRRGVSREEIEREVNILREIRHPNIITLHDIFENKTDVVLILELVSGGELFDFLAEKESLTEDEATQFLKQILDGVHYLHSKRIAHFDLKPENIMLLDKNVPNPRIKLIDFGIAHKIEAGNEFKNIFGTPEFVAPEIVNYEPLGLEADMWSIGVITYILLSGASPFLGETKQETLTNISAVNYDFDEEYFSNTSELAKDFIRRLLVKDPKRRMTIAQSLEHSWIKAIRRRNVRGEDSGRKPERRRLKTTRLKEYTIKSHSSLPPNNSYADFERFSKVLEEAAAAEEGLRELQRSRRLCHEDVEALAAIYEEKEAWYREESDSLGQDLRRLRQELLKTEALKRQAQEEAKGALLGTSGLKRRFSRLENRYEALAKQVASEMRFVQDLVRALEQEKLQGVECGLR
The target of test [10] is Serine/threonine-protein kinase OSR1 (Homo sapiens) (UniProt O95747).
Test [11] has as its target T3, Lymphokine-activated killer T-cell-originated protein kinase (Homo sapiens) (UniProt Q96KB5).
T3 sequence (whole entry): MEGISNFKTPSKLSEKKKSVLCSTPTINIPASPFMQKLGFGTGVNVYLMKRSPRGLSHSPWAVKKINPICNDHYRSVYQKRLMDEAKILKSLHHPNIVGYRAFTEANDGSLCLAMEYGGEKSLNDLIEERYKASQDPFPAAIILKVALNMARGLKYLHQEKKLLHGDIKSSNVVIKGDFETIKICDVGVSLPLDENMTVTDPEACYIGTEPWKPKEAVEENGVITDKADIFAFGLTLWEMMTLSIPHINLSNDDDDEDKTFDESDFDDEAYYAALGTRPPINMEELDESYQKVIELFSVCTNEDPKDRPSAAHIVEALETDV

The target of test [12] is Calcium/calmodulin-dependent protein kinase type 1D (Homo sapiens) (UniProt Q8IU85).
Sequence of Calcium/calmodulin-dependent protein kinase type 1D (Homo sapiens) (Q8IU85 whole entry, looked up): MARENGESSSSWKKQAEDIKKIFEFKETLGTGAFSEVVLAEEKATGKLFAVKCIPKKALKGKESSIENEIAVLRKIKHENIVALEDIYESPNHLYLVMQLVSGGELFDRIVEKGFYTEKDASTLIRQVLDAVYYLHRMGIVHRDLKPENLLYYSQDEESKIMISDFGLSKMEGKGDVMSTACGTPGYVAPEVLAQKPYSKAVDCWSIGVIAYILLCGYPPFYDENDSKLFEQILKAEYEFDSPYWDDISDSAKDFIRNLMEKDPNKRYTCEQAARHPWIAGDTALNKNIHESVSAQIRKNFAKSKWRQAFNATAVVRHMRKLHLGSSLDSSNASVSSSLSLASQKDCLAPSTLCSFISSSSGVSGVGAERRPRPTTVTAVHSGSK
For test [13], the target named is STE20-like serine/threonine-protein kinase (Homo sapiens) (UniProt Q9H2G2).
The target of test [14] is Cyclin-dependent kinase 6 (Homo sapiens) (UniProt Q00534).
Sequence of Cyclin-dependent kinase 6 (Homo sapiens) (Q00534 whole entry): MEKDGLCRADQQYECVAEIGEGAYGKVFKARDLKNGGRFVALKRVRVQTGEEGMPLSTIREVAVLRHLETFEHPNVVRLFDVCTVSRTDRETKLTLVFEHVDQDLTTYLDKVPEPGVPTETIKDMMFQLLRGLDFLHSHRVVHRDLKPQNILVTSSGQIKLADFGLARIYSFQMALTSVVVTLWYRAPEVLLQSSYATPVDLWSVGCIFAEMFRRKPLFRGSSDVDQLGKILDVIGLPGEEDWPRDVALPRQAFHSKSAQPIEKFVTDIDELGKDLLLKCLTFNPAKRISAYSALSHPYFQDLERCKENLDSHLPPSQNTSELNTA
Test [15] addresses Dual specificity protein kinase CLK1 (Homo sapiens) (UniProt P49759).
In test [16] the target is T4, Serine/threonine-protein kinase Nek2 (Homo sapiens) (UniProt P51955).
T4 sequence (whole entry): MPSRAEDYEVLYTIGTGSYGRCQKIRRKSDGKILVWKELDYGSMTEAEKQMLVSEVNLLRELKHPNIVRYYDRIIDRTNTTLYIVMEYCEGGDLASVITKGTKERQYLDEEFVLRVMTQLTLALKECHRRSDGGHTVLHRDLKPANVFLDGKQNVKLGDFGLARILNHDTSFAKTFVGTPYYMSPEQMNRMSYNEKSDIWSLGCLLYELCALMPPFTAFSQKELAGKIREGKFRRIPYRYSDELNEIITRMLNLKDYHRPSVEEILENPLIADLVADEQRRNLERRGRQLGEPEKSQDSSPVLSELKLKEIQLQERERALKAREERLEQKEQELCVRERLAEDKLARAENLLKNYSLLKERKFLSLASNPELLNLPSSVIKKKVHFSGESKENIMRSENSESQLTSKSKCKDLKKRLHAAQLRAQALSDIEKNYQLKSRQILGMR

Test [17] concerns the target Serine/threonine-protein kinase RIO2 (Homo sapiens) (UniProt Q9BVS4).
Test [18] deals with Serine/threonine-protein kinase 16 (Homo sapiens) (UniProt O75716).
Sequence of Serine/threonine-protein kinase 16 (Homo sapiens) (O75716 whole entry): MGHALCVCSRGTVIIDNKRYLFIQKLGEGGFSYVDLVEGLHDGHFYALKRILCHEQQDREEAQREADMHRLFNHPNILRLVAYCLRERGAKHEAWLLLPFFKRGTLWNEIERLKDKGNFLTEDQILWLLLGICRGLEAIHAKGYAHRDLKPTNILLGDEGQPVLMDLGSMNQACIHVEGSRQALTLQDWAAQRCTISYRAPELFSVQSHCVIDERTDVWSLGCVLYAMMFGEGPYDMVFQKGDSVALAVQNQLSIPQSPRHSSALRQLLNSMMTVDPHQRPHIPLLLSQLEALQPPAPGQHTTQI
Test [19] concerns the target Mitogen-activated protein kinase 3 (Homo sapiens, UniProt P27361).
The target of test [20] is cAMP-dependent protein kinase catalytic subunit alpha (Homo sapiens) (UniProt P17612).
Test [21] has as its target Ribosomal protein S6 kinase alpha-3 (Homo sapiens) (UniProt P51812).

Sequence of Serine/threonine-protein kinase RIO2 (Homo sapiens) (Q9BVS4 whole entry, looked up): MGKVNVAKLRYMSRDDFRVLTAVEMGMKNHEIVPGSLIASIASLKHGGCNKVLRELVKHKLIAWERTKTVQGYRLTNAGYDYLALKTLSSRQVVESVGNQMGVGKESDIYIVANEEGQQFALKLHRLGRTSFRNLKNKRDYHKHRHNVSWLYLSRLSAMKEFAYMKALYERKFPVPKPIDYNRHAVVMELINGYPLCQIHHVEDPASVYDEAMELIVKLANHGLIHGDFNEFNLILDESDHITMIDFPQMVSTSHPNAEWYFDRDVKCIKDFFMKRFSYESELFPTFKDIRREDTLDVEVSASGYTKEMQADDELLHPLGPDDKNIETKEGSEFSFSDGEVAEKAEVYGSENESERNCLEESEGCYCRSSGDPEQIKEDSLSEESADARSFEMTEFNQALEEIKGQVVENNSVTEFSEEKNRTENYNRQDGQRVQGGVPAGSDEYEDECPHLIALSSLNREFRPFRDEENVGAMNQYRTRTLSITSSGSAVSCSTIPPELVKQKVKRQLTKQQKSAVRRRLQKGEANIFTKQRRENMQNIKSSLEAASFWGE
Sequence of Serine/threonine-protein kinase VRK2 (Homo sapiens) (Q86Y07 whole entry): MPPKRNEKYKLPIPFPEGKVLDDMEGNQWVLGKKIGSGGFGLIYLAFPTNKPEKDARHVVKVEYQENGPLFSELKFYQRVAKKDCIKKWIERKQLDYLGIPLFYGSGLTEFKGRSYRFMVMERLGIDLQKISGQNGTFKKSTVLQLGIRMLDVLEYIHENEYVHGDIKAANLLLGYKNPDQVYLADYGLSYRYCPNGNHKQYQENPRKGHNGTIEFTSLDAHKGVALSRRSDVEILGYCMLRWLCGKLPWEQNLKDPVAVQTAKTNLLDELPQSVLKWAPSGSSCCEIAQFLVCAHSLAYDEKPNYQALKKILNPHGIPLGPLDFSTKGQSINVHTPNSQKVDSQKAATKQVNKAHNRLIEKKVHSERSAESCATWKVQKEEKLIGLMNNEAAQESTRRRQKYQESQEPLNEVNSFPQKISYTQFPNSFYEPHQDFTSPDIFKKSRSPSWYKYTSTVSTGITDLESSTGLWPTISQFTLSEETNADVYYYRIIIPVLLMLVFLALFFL
Sequence of Serine/threonine-protein kinase 38 (Homo sapiens) (Q15208 2-465 limits assumed): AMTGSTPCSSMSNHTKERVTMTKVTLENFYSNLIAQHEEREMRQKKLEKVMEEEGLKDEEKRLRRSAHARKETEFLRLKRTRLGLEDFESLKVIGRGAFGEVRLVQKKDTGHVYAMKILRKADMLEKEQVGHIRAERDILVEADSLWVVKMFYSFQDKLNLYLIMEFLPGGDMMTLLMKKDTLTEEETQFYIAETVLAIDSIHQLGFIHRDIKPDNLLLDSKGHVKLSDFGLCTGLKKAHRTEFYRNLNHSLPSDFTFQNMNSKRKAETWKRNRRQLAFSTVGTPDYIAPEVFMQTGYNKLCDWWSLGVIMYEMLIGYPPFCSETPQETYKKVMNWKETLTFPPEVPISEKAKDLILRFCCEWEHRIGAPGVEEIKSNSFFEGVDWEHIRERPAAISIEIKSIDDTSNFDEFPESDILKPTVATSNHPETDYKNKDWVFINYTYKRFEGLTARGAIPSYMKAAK
Sequence of Mitogen-activated protein kinase 3 (P27361 whole entry): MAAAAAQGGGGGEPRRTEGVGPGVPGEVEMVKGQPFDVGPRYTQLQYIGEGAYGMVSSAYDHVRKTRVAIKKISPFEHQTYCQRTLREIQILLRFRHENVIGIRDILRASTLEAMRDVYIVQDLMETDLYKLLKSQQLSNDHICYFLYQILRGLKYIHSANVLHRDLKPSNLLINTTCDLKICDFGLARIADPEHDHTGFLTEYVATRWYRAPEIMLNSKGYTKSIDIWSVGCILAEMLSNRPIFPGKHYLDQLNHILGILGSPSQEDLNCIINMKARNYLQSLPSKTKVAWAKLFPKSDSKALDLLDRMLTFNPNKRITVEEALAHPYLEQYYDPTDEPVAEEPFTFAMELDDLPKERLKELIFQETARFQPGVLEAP
Sequence of Dual specificity mitogen-activated protein kinase kinase 2 (P36507 whole entry): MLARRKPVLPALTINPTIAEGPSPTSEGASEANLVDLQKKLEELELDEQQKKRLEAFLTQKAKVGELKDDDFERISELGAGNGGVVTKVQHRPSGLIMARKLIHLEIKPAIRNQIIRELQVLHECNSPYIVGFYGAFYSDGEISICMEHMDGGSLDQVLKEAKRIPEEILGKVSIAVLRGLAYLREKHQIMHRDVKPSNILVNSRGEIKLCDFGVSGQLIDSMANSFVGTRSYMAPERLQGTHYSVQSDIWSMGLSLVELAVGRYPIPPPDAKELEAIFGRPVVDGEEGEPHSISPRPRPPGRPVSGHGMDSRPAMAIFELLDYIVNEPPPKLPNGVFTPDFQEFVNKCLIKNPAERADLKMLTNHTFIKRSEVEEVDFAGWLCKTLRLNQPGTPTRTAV
Sequence of Ribosomal protein S6 kinase alpha-3 (Homo sapiens) (P51812 whole entry): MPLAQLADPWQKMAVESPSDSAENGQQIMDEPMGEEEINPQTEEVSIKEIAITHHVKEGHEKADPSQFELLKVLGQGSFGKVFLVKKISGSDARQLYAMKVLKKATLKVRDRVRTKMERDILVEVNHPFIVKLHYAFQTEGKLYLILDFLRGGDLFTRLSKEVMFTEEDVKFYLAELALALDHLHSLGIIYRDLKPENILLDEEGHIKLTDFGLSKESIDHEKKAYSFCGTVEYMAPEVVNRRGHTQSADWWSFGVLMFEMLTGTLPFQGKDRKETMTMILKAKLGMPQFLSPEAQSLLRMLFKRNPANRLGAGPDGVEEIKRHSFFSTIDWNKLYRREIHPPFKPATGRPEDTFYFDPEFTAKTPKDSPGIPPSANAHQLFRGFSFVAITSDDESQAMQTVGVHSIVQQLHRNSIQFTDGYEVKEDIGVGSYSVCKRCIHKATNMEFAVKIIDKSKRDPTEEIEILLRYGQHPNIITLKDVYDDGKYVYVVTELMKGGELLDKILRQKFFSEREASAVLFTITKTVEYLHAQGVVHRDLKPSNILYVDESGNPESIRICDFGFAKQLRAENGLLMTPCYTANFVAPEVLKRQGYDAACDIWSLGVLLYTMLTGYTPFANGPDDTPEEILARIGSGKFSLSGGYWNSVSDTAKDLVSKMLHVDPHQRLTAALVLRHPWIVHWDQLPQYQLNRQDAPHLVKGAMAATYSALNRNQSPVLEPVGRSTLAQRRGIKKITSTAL

On to `O=C1Cc2c([nH]c3ccc(Br)cc23)-c2ccccc2N1` [KENPAULLONE], for which the thermal shift (ΔTm) (usually the shift of the melting midpoint relative to a reference) in test [1] is -0.8 °C; in test [2] it was 2.7 °C; in [3], -0.3 °C; in test [4] it was 1.1 °C; in test [5] it was 0.4 °C; in test [6] it was 0.2 °C. Besides, the shift in melting temperature (ΔTm) in [7] was 0.3 °C; in [8], 4.9 °C; in test [9], 0.4 °C; in [10], 1.8 °C; in test [11] it was -2 °C; in test [12] it was 1 °C. Also, the ΔTm in test [13] is 1.7 °C; in test [14], 0.7 °C; in test [15] it was 1.7 °C; in [16], 1.3 °C; in [17] it was 1.8 °C; in test [18], 0.7 °C. Also, the ΔTm in [19] was found to be 0.5 °C; in [20], 1 °C.
`COc1nccc(-c2c(-c3ccc(F)cc3)ncn2[C@H]2CC[C@H](O)CC2)n1`: the thermal shift (ΔTm) in test [1] was 0 °C; in test [3] it was 0.2 °C; in [4], 0.4 °C; in test [5] it was -0.3 °C; in test [6] it was 0.8 °C; in [7], 0.2 °C. The thermal shift (ΔTm) in test [8] was 6.1 °C; in [9] it was 0.4 °C; in test [10], 0.1 °C; in test [11] it was 0.7 °C; in [12] it was -0.1 °C; in test [13], 1.9 °C. In addition, the ΔTm in test [14] was 0.1 °C; in [21] it was 0.6 °C; in [15], 1.7 °C; in test [16] it was 1 °C; in test [17], 0 °C; in test [18], -0.2 °C. Moreover, the shift in melting temperature (ΔTm) in test [19] was 0 °C; in test [20], -0.8 °C.
Take `CCOc1ccc(/C=C2/SC(=O)N(CCN)C2=O)cc1` [HIAZOLIDINEDIONE1]: the ΔTm in test [1] is -0.3 °C; in test [3], 0.4 °C; in [4], 0.5 °C; in test [5] it was -1.7 °C; in test [6], 0.1 °C; in [7], 0.2 °C. Also, the ΔTm in test [8] is 0.4 °C; in [9] it was 0.3 °C; in [10] it was -0.1 °C; in [11], 0.2 °C; in test [12], -0.2 °C; in test [13] it was -0.4 °C. Further, the ΔTm was 0.2 °C in test [14]; 0 °C in test [21]; 0.9 °C in test [15]; 0.8 °C in test [16]; -0.2 °C in [17]; -0.1 °C in [18]. Moreover, the thermal shift (ΔTm) in test [19] is -0.1 °C; in test [20], 0.5 °C.
`Cc1cc(Nc2nc(-c3ccccc3)nc3ccccc23)n[nH]1`: the ΔTm was -0.4 °C in test [1]; 3.2 °C in test [3]; 4 °C in test [4]; 0.4 °C in [5]; 0.4 °C in test [6]; 3.7 °C in [7]. Besides, the ΔTm in [8] worked out at 7.4 °C; in [9], 6.5 °C; in test [10], 2.9 °C; in test [11] it was 0.9 °C; in [12], 3.5 °C; in test [13], 7.1 °C. Besides, the ΔTm in test [14] was 1.9 °C; in test [21], 0.8 °C; in test [15], 5.8 °C; in [16], 3 °C; in [17], 5.3 °C; in test [18], 5.6 °C. Moreover, the ΔTm is 0.1 °C in [19] and 6.4 °C in test [20].
For the molecule `O=C1NC(=O)c2c1c1c3ccccc3[nH]c1n1cncc21` [ISOGRANULATIMIDE], the ΔTm in [1] came to 1.9 °C; in test [3], 5.3 °C; in [4] it was 2.4 °C; in [5], 1.5 °C; in [6], 2 °C; in test [7], 3.4 °C. The thermal shift (ΔTm) in test [8] came out at 2.5 °C; in test [9], 5.3 °C; in test [10] it was 1.4 °C; in test [11], 1 °C; in test [12], 1 °C; in test [13], 2.1 °C. Further, the shift in melting temperature (ΔTm) came to 2.7 °C in test [14]; 5.2 °C in test [21]; 4.5 °C in test [15]; 2.4 °C in test [16]; 7.3 °C in test [17]; 7.4 °C in test [18]. The ΔTm in test [19] came out at 2 °C; in [20] it was 5.9 °C.
For the molecule `CSc1nc(-c2ccc(F)cc2)c(-c2ccnc(NC(C)c3ccccc3)c2)[nH]1` (racemic), the shift in melting temperature (ΔTm) in test [1] is -0.9 °C; in test [3], 0.1 °C; in test [4], 0.3 °C; in test [5], 0.5 °C; in [6], 0.2 °C; in test [7], 1.9 °C. Besides, the ΔTm came to 1.3 °C in test [8]; 2.4 °C in [9]; 0.3 °C in test [10]; 0.4 °C in test [11]; 0.5 °C in test [12]; 0.8 °C in test [13]. Further, the thermal shift (ΔTm) in test [14] was 0 °C; in test [21], 0.4 °C; in test [15] it was 0 °C; in [16], 0.9 °C; in test [17] it was 0 °C; in [18] it was -0.1 °C. Further, the shift in melting temperature (ΔTm) in test [19] is 0 °C; in [20], -0.7 °C.
Regarding `COc1ccc(S(=O)(=O)N(CCO)c2ccccc2CN(C)C/C=C/c2ccc(Cl)cc2)cc1`, the ΔTm in [1] is 0.4 °C; in test [3] it was -0.2 °C; in test [4] it was -0.2 °C; in [5] it was 0.3 °C; in test [6], -0.3 °C; in [7], 0.3 °C. In addition, the thermal shift (ΔTm) in [8] was -0.2 °C; in [9] it was 0.2 °C; in test [10], -0.7 °C; in test [11] it was -0.1 °C; in [12], -0.3 °C; in test [13] it was 1.1 °C. The ΔTm in [14] is -0.3 °C; in [21], -0.9 °C; in [15], 0.1 °C; in test [16] it was -0.1 °C; in [17], -0.4 °C; in test [18], 0.5 °C. Moreover, the ΔTm in test [19] is 0.1 °C; in test [20] it was -4.1 °C.
